Data on seven molecules can be found in paper PMC10498151 (RSC Advances, 2023).

The subject of data set [1] is Bacteroides ovatus (ATCC 84834). In words: microbe, parasite or virus in culture. The settings on record: ATCC84834. In kind it is cell-based.
For data set [2], the system named is Clostridium butyricum (CI). In words: microbe, parasite or virus in culture. The data set is classed as cell-based.
For another data set, the system named is Bacteroides fragilis. The data set can be described thus: microbe, parasite or virus in culture. In kind it is cell-based.
Data set [3] has as its system Eggerthella lenta (ATCC 43055). In words: microbe, parasite or virus in culture. The data set is classed as cell-based. The settings on record: ATCC43055.
For another data set, the system named is Prevotella spp. The data set is classed as cell-based.
The next data set relates to Finegoldia magna (CI). In words: microbe, parasite or virus in culture. In kind it is cell-based.
For data set [4], the system named is Peptostreptococcus anaerobius (CI). The data set can be described thus: microbe, parasite or virus in culture. In kind it is cell-based.
The test system of the next data set is Cutibacterium acnes. The data set can be described thus: microbe, parasite or virus in culture. In kind it is cell-based.
The subject of the next data set is Fusobacterium nucleatum. In words: microbe, parasite or virus in culture. In kind it is cell-based.
The test system of data set [5] is Prevotella intermedia/nigres-cens (ATCC 25611). In words: microbe, parasite or virus in culture. In kind it is cell-based, Prevotella intermedia/nigrescens. The settings on record: ATCC25611.
The subject of data set [6] is Other Bacteroides spp. and Parabacteroides. In kind it is cell-based, Bacteroides spp. and Parabacteroides distasonis.
A further data set concerns Clostridium difficile. The data set can be described thus: microbe, parasite or virus in culture. In kind it is cell-based.
Data set [7] has as its system Bacteroides thetaiotaomicron (ATCC 29148). In words: microbe, parasite or virus in culture. The data set is classed as cell-based. The settings on record: ATCC29148.
Data set [8] has as its system Clostridium sporogenes (ATCC 3584). In words: microbe, parasite or virus in culture. In kind it is cell-based. The settings on record: ATCC3584.
For data set [9], the system named is Parvimonas micra (ATCC 3870). The data set can be described thus: microbe, parasite or virus in culture. The data set is classed as cell-based.
The subject of another data set is Porphyromonas sp. (CI). The data set can be described thus: microbe, parasite or virus in culture. In kind it is cell-based.
For data set [10], the system named is Porphyromonas asaccharolytica (CI). The data set can be described thus: microbe, parasite or virus in culture. In kind it is cell-based.
In the next data set the test system is Clostridium perfringens. The data set is classed as cell-based.
For data set [11] the following is noted: cited from earlier work.
In another data set the test system is C. difficile. The settings on record: C. difficile infection, review ref 25; cited from earlier work.
For data set [12], the system named is Porphyromonas gingivalis (ATCC 33277). In words: microbe, parasite or virus in culture. The data set is classed as cell-based.
A further data set relates to Fusobacterium mortiferum. The data set can be described thus: microbe, parasite or virus in culture. In kind it is cell-based.
The conditions of data set [13]: determined in PBS buffer ref 47; cited from earlier work.
Data set [14] deals with Clostridium sordellii (CI). The data set is classed as cell-based.
For data set [15], the system named is Actinomyces odontolyticus (CI). In kind it is cell-based.
Setting [16] is: Bacteroides fragilis, ATCC25285.
[17] abbreviates: Fusobacterium nucleatum, ATCC25586.
Where [18] appears, read: Clostridioides difficile, ATCC43255.
Setting [19] is: Porphyromonas gingivalis, ATCC33277.

Converted amounts (≈) assume the structure as drawn. Like-named read-outs stand apart in the source and are kept apart here.

As for `O=[N+]([O-])c1ccc(C2=[N+]([O-])c3ccccc3N3CCN=C23)cc1` [1k, 4-(4-Nitrophenyl)-1,2-dihydroimidazo[1,2-a]quinoxaline 5-oxide], the MIC in data set [1] was at most 0.06 mg/L; in data set [2], at most 0.06 mg/L; in the data set on Bacteroides fragilis (setting [16]), at most 0.06 mg/L; in [3], at most 0.06 mg/L; with Finegoldia magna (CI) (Finegoldia magna) it was 1 mg/L (≈ 3.24 µM); in data set [4], at most 0.06 mg/L. Moreover, the MIC with Cutibacterium acnes is 32 mg/L (≈ 104 µM); with Fusobacterium nucleatum (setting [17]) it was at most 0.06 mg/L; in [5], at most 0.06 mg/L; with Clostridium difficile (setting [18]), at most 0.06 mg/L; in [7] it was at most 0.06 mg/L; in [8], at most 0.06 mg/L. Besides, the MIC in data set [9] (Parvimonas micra, ATCC3870) is at most 0.06 mg/L; in the data set on Porphyromonas sp. (CI) (Porphyromonas), at most 0.06 mg/L; in data set [10], at most 0.06 mg/L. For the same molecule, the “Selectivity index (>100 μg mL^−1/MIC90)” value was over 1667 in the data set on Bacteroides fragilis; over 1667 in the data set on Prevotella spp.; over 1667 with Fusobacterium nucleatum; over 1667 in data set [6]; over 1667 in the data set with Clostridium difficile; over 800 in the data set on Clostridium perfringens. Further, the “Selectivity index (IS)” value in the data set with RAW 264.7 cells is over 800.
In the case of `O=[N+]([O-])c1ccc(C2=NCCCN2c2ccccc2)cc1` [1-phenyl-2-4-nitrophenyl-1,4,5,6-tetrahydropyrimidine], the pKa – broadly, the pH at which an ionisable group is half protonated – in data set [11] is listed as 10.51.
For `CN[C@H](CC(C)C)C(=O)N[C@H]1C(=O)N[C@@H](CC(N)=O)C(=O)N[C@H]2C(=O)N[C@H]3C(=O)N[C@H](C(=O)N[C@H](C(=O)O)c4cc(O)cc(O)c4-c4cc3ccc4O)[C@H](O)c3ccc(c(Cl)c3)Oc3cc2cc(c3O[C@@H]2O[C@H](CO)[C@@H](O)[C@H](O)[C@H]2O[C@H]2C[C@](C)(N)[C@H](O)[C@H](C)O2)Oc2ccc(cc2Cl)[C@H]1O` [vancomycin], in the data set with C. difficile, the recurrence after treatment was 24.0% and the treatment failure is 14.2%.
Consider `Cc1ncc([N+](=O)[O-])n1CCO` [Mtz, metronidazole, reference compound], for which the MIC is 1 mg/L (≈ 5.84 µM) in [1]; at most 0.06 mg/L in data set [2]; at most 0.06 mg/L in data set [12] (setting [19]); 0.25 mg/L (≈ 1.46 µM) against Bacteroides fragilis (setting [16]); 0.25 mg/L (≈ 1.46 µM) in the data set with Fusobacterium mortiferum; 0.25 mg/L (≈ 1.46 µM) in data set [3]. The MIC was 0.125 mg/L (≈ 0.73 µM) with Finegoldia magna (CI) (Finegoldia magna); 0.125 mg/L (≈ 0.73 µM) in data set [4]; over 64 mg/L against Cutibacterium acnes; 0.125 mg/L (≈ 0.73 µM) against Fusobacterium nucleatum (setting [17]); 1 mg/L (≈ 5.84 µM) in data set [5]; 0.25 mg/L (≈ 1.46 µM) in the data set with Clostridium difficile (setting [18]). For the same molecule, the MIC is 1 mg/L (≈ 5.84 µM) in [7]; 0.25 mg/L (≈ 1.46 µM) in data set [8]; 0.125 mg/L (≈ 0.73 µM) in [9] (Parvimonas micra, ATCC3870); 0.125 mg/L (≈ 0.73 µM) against Porphyromonas sp. (CI) (Porphyromonas); 0.25 mg/L (≈ 1.46 µM) in [10]. In addition, the recurrence after treatment in the data set on C. difficile is 27.1%. The treatment failure in the data set on C. difficile is reported as 22.4%.
Regarding `[O-][N+]1=C(c2ccc(Cl)cc2)C2=NCCN2c2ccccc21` [1j, 4-(4-Chlorophenyl)-1,2-dihydroimidazo[1,2-a]quinoxaline 5-oxide], the “logP: experimental log of the octanol/water partition coefficient” value in data set [13] is recorded as 1.292. In addition, the MIC is 0.125 mg/L (≈ 0.42 µM) in [1]; at most 0.06 mg/L in data set [2]; at most 0.06 mg/L in data set [12] (setting [19]); 0.125 mg/L (≈ 0.42 µM) against Bacteroides fragilis (setting [16]); at most 0.06 mg/L in data set [3]; 0.25 mg/L (≈ 0.84 µM) against Finegoldia magna (CI) (Finegoldia magna). Moreover, the MIC in [4] is 0.25 mg/L (≈ 0.84 µM); with Fusobacterium nucleatum (setting [17]), at most 0.06 mg/L; in [5], at most 0.06 mg/L; against Clostridium difficile (setting [18]), 0.25 mg/L (≈ 0.84 µM); in [7], 0.125 mg/L (≈ 0.42 µM); in data set [8], 0.25 mg/L (≈ 0.84 µM). Also, the MIC in data set [9] (Parvimonas micra, ATCC3870) is at most 0.06 mg/L; in the data set with Porphyromonas sp. (CI) (Porphyromonas) it was at most 0.06 mg/L; in data set [10] it was at most 0.06 mg/L. For the same molecule, the “Selectivity index (>100 μg mL^−1/MIC90)” value is listed as over 800 in the data set with Bacteroides fragilis; over 1667 with Prevotella spp.; over 800 in the data set with Fusobacterium nucleatum; over 800 in data set [6]; over 100 with Clostridium perfringens.
In the case of “5-phenyl-2,3-dihydropyrimidoquinoxaline N-oxide [1a]”, the “logP: experimental log of the octanol/water partition coefficient” value in data set [13] is −0.149. Also, the MIC in data set [12] is at most 0.06 mg/L; in the data set with Bacteroides fragilis, 1 mg/L; with Finegoldia magna (CI) it was 2 mg/L; with Fusobacterium nucleatum, 0.125 mg/L; in data set [14] it was 16 mg/L; against Clostridium difficile it was 4 mg/L. Also, the MIC in data set [9] came to 0.125 mg/L; against Porphyromonas sp. (CI) it was 0.125 mg/L; in data set [15], 32 mg/L. Also, the “Selectivity index (>100 μg mL^−1/MIC90)” value was over 100 in the data set with Bacteroides fragilis; over 100 in the data set on Prevotella spp.; over 100 in the data set on Fusobacterium nucleatum; over 100 in data set [6]; over 25 in the data set on Clostridium difficile; over 6 in the data set with Clostridium perfringens. In the data set on RAW 264.7 cells, this molecule displayed a Cell viability of 98%.
For the molecule `O=[N+]([O-])c1ccc(C2=NCCN2c2ccccc2)cc1` [its imidazoline homologue], the pKa in data set [11] was 7.65.
